Marks after values point to notes of the source that are not given here.
Test system: chicken embryos
Test: Metabolic profiling of allantoic fluid (GC-MS, LC-MS, OPLS-DA)
Assay type: in vivo, Gallus gallus domesticus
Conditions: 150 μg/egg
Experimental: Controls were injected with 20 μL vehicle only (DMSO).
Plasma was collected and stored at -70°C.
Metabolites in allantoic fluid and blood plasma were analyzed using gas chromatography-mass spectrometry (GC-MS) and liquid chromatography-mass spectrometry (LC-MS) as described in S1 Methods. Prior to GC-MS and LC-MS analysis, allantoic fluid (100 μL) and blood plasma (50 μL) were extracted. To each sample, 900 μL (allantoic fluid) or 450 μL (blood plasma) of extraction buffer (90/10 v/v methanol:water) including all internal standards were added. Standards for GC-MS were proline, succinic acid, glutamic acid, salicylic acid, alpha-ketoglutarate, putrescine, myristic acid, hexadecanoic acid, cholesterol, and sucrose. Standards for LC-MS were Val-Tyr-Val, Leu-enkephalin, sulfadimethoxine and reserpine. Samples were homogenized by shaking in a bead mill at a frequency of 30 Hz for 3 minutes and proteins were precipitated at +4°C on ice. The samples were centrifuged at +4°C, 14000 rpm, for 10 min. Then, 200 μL supernatant was transferred to a GC microvial and 200 μL was transferred to an LC microvial, and solvents were evaporated. Samples from the four replicate experiments were analyzed using in chronological order and within each replicate experiment the run order of the individual samples was randomized.
Multivariate statistical analyses of metabolite profiles were performed using the software package SIMCA-P version 13.0 (Umetrics, Umeå, Sweden). Data was centered and scaled to variance 1 (UV scaling) prior to modelling. To reduce unintended systematic variation caused by sample processing and instrument drift, GC-MS and LC-MS metabolite amounts (expressed as the area under the chromatographic peak) were normalized by Orthogonal Partial Least Squares analysis (O2PLS) prior to multivariate data analysis. O2PLS finds common (predictive) and unique (orthogonal) variation in two data matrices. If applied to find the common variation between the data matrix containing the measured metabolite concentrations and a matrix containing only the internal standards, the only common (predictive) variation expected is due to the unintended systematic variation. By deleting the contribution of the predictive latent variables, that variation can be removed from the data. Models obtained after this normalization contain in general less latent variables, and this simplification helps when deciding on the number of latent variables to be used. Following normalization, GC-MS and LC-MS data were analyzed together. Initially, a global Principal Component Analysis (PCA) was performed to get an overview of groups and trends and to identify outliers. Projections to latent structures by means of Orthogonal Partial Least Squares Discriminant Analysis (OPLS-DA) was used to model the relationship between the X-matrix (metabolite concentrations) and the Y matrix (class, i.e. exposure group or sex), and to find x-variables that were related to class belonging. OPLS-DA is a supervised prediction and regression method that rotates the projection plane to find the maximum covariance between the data and the class assignment. All groups were first analyzed together in a 5-class OPLS-DA and then each exposure group was analyzed against the control group in a 2-class OPLS-DA. Sex differences were analyzed both using the whole data set and in each group separately using 2-class OPLS-DA, with females and males as the two classes. Only variables with 80% or more nonzero values were included in the statistical models. […] The validity of each model was also checked using CV-ANOVA (ANOVA of the cross-validated residuals). A significance level of p < 0.05 was used. For each model, R ^2 X, R ^2 Y and Q ^2 values were calculated, where R ^2 X is a measure of the fraction of x variation modeled in the extracted latent variables, R ^2 Y is a measure of the fraction of y variation modeled and Q ^2 is an estimate of the predictive ability of the model and is calculated by cross-validation. […]

[1] = GC, tentative 2-Oxovaleric acid

CC(C)(Sc1ccc(CCN(CCCCC2CCCCC2)C(=O)NC2CCCCC2)cc1)C(=O)O [GW7647, reference compound]
Mean concentration relative to control, feature Win004_C08 (GC): 1.3***
Mean concentration relative to control, feature Win005_C07 (GC): 1.4***
Mean concentration relative to control, feature Win008_C06 (GC): 2.7***
Mean concentration relative to control, feature Win022_C01 (GC): 2.3***
Mean concentration relative to control, feature Win023_C06 (GC): 2.8***
Mean concentration relative to control, feature win006_C01 (GC): 2.4***
Mean concentration relative to control, feature Win008_C07 (GC, tentative 1-Aminocyclopropanecarboxylic acid): 1.4***
Mean concentration relative to control, feature Win023_C03 (GC, tentative 2-Oxoglutaric acid): 2.5***
Mean concentration relative to control, feature Win007_C09 [1]: 1.5***
Mean concentration relative to control, feature Win008_C05 [1]: 1.6***
Mean concentration relative to control, feature Win018_C04 (GC, tentative 3-Amino-2-piperidone): 1.4***
Mean concentration relative to control, feature Win007_C03 (GC, tentative 3-Hydroxybutanoic acid): 1.3***
Mean concentration relative to control, feature Win042_C02 (GC, tentative Cystathionine): 2.1***
Mean concentration relative to control, feature Win009_C03 (GC, tentative Ketoleucine): 1.5***
Mean concentration relative to control, feature Win008_C04 (GC, tentative Malonic acid): 1.3***
Mean concentration relative to control, feature Win005_C03 (GC, tentative Oxalic acid): 0.8*
Mean concentration relative to control, feature Win013_C05 (GC, tentative Succinic acid): 1.3***
Mean concentration relative to control, feature 134.0239@1.1350567 (LC): 1.6*
Mean concentration relative to control, feature 145.0538@3.072527 (LC): 1.8***
Mean concentration relative to control, feature 147.0328@3.0722888 (LC): 1.7***
Mean concentration relative to control, feature 160.0323@1.1950632 (LC): 1.1*
Mean concentration relative to control, feature 173.0488@3.0734746 (LC): 1.8***
Mean concentration relative to control, feature 176.0952@1.3890611 (LC): 0.6
Mean concentration relative to control, feature 178.0428@1.7582192 (LC): 1.1
Mean concentration relative to control, feature 180.0048@4.421465 (LC): 1.0
Mean concentration relative to control, feature 189.1159@1.9209185 (LC): 0.8*
Mean concentration relative to control, feature 197.0639@2.1181405 (LC): 1.2***
Mean concentration relative to control, feature 201.012@3.046474 (LC): 1.5***
Mean concentration relative to control, feature 202.0429@2.9548414 (LC): 1.1
Mean concentration relative to control, feature 205.0533@4.421879 (LC): 1.0
Mean concentration relative to control, feature 214.016@2.1190732 (LC): 1.3***
Mean concentration relative to control, feature 226.0107@4.421457 (LC): 1.0
Mean concentration relative to control, feature 236.0816@3.0720985 (LC): 1.7***
Mean concentration relative to control, feature 241.0551@2.3510706 (LC): 1.2*
Mean concentration relative to control, feature 243.1118@2.1537287 (LC): 1.0
Mean concentration relative to control, feature 244.9972@4.421603 (LC): 1.0
Mean concentration relative to control, feature 245.1563@2.2907295 (LC): 0.8*
Mean concentration relative to control, feature 250.0981@3.072492 (LC): 1.8***
Mean concentration relative to control, feature 262.0978@2.7961144 (LC): 2.6***
Mean concentration relative to control, feature 263.0855@2.2847009 (LC): 2.1***
Mean concentration relative to control, feature 270.0441@1.1407775 (LC): 0.9
Mean concentration relative to control, feature 278.0928@3.0723689 (LC): 1.8***
Mean concentration relative to control, feature 279.1248@2.796395 (LC): 3.2***
Mean concentration relative to control, feature 280.1425@2.730277 (LC): 1.0
Mean concentration relative to control, feature 288.1166@2.9551322 (LC): 1.2
Mean concentration relative to control, feature 289.1012@3.249983 (LC): 1.8***
Mean concentration relative to control, feature 289.173@7.5030584 (LC): 0.9
Mean concentration relative to control, feature 294.1242@2.3692534 (LC): 1.0
Mean concentration relative to control, feature 302.0508@3.0722616 (LC): 1.6***
Mean concentration relative to control, feature 305.1682@5.353517 (LC): 1.7***
Mean concentration relative to control, feature 305.1684@5.2955093 (LC): 1.6***
Mean concentration relative to control, feature 308.073@4.4211636 (LC): 1.0
Mean concentration relative to control, feature 310.1181@1.5090439 (LC): 1.1
Mean concentration relative to control, feature 316.0389@3.0725708 (LC): 1.5***
Mean concentration relative to control, feature 320.0626@3.0729218 (LC): 1.5***
Mean concentration relative to control, feature 325.1114@2.1190624 (LC): 1.5***
Mean concentration relative to control, feature 325.1115@2.3554378 (LC): 1.3*
Mean concentration relative to control, feature 333.1335@2.8639288 (LC): 0.9
Mean concentration relative to control, feature 333.2005@6.5291867 (LC): 1.3*
Mean concentration relative to control, feature 335.1866@4.508565 (LC): 0.4***
Mean concentration relative to control, feature 337.1651@1.8737898 (LC): 1.4***
Mean concentration relative to control, feature 344.1424@2.348947 (LC): 1.3
Mean concentration relative to control, feature 348.0553@3.0730357 (LC): 1.5***
Mean concentration relative to control, feature 349.1651@2.4087605 (LC): 0.6***
Mean concentration relative to control, feature 357.1997@6.9691257 (LC): 1.1
Mean concentration relative to control, feature 371.1513@3.0009465 (LC): 1.2
Mean concentration relative to control, feature 375.1819@3.672254 (LC): 0.6***
Mean concentration relative to control, feature 394.167@3.9552917 (LC): 0.5***
Mean concentration relative to control, feature 414.1482@2.118972 (LC): 1.5***
Mean concentration relative to control, feature 466.0837@2.1187525 (LC): 1.5***
Mean concentration relative to control, feature 488.0753@4.419585 (LC): 1.0
Mean concentration relative to control, feature 498.1003@2.1184251 (LC): 1.4***
Mean concentration relative to control, feature 507.1682@2.1238236 (LC): 1.4***
Mean concentration relative to control, feature 580.1426@3.0726147 (LC): 2.3***
Mean concentration relative to control, feature 582.1578@2.1747615 (LC): 1.7***
Mean concentration relative to control, feature 588.1751@2.1182237 (LC): 1.5***
Mean concentration relative to control, feature 594.1337@3.0724604 (LC): 2.3***
Mean concentration relative to control, feature 604.1486@2.1174603 (LC): 1.5***
Mean concentration relative to control, feature 623.183@2.1249466 (LC): 1.8***
Mean concentration relative to control, feature 668.2625@6.4379454 (LC): 1.03*
Mean concentration relative to control, feature 155.0353@0.6447272 (LC, suggested C3H10NO4P): 0.6
Mean concentration relative to control, feature 345.0497@1.1234403 (LC, suggested C10H12N5O7P): 1.3*
Mean concentration relative to control, feature 337.0259@4.4213357 (LC, suggested C13H11N3O4S2): 1.0
Mean concentration relative to control, feature 344.1427@2.1164653 (LC, suggested C13H20N4O7): 1.5***
Mean concentration relative to control, feature 331.184@6.373359 (LC, suggested C13H25N5O5): 1.3*
Mean concentration relative to control, feature 361.2026@5.6644735 (LC, suggested C16H31N3O4S): 0.5***

Source: PMC4666608, “Metabolic Profiling of Chicken Embryos Exposed to Perfluorooctanoic Acid (PFOA) and Agonists to Peroxisome Proliferator-Activated Receptors” (PLoS ONE, 2015)
